Experimental findings from patent publication US20130310256A1, “HERBICIDAL COMPOSITIONS COMPRISING 4-AMINO-3-CHLORO-5-FLUORO-6-(4-CHLORO-2-FLUORO-3-METHOXYPHENYL) PYRIDINE-2-CARBOXYLIC ACID OR A DERIVATIVE THEREOF AND VLCFA AND LIPID SYNTHESIS INHIBITING HERBICIDES” (DOW AGROSCIENCES LLC, priority 2008, published 2013) are described below.

One test has as its system LEFCH. The test can be described thus: Example II: in-water applied weed control, transplanted paddy rice, greenhouse. The class given is in vivo, Leptochloa chinensis (L.) Nees (Chinese sprangletop). The protocol:
(§1) Weed seeds or nutlets of the desired test plant species were planted in puddled soil (mud) prepared by mixing a shredded, non-sterilized mineral soil (50.5 percent silt, 25.5 percent clay, and 24 percent sand, with a pH of about 7.6 and an organic matter content of about 2.9 percent) and water at a 1:1 volumetric ratio. The prepared mud was dispensed in 365 mL aliquots into 16-ounce (oz.) non-perforated plastic pots with a surface area of 86.59 square centimeters (cm^2) leaving a headspace of 3 centimeters (cm) in each pot. Mud was allowed to dry overnight prior to planting or transplanting. Rice seeds were planted in Sun Gro MetroMix® 306 planting mixture, which typically has a pH of 6.0 to 6.8 and an organic matter content of about 30 percent, in plastic plug trays. Seedlings at the second or third leaf stage of growth were transplanted into 840 mL of mud contained in 32-oz. non-perforated plastic pots with a surface area of 86.59 cm^2 4 days prior to herbicide application. The paddy was created by filling the headspace of the pots with 2.5 to 3 cm of water. When required to ensure good germination and healthy plants, a fungicide treatment and/or other chemical or physical treatment was applied. The plants were grown for 4-22 days in a greenhouse with an approximate 14 hr photoperiod which was maintained at about 29′C during the day and 26° C. during the night. Nutrients were added as Osmocote® (19:6:12, N:P:K+ minor nutrients) at 2 g per 16-oz. pot and 4 g per 32-oz. pot. Water was added on a regular basis to maintain the paddy flood, and supplemental lighting was provided with overhead metal halide 1000-Watt lamps as necessary. The plants were employed for testing when they reached the first through fourth true leaf stage.
(§2) Treatments consisted of the acid or esters of 4-amino-3-chloro-5-fluoro-6-(4-chloro-2-fluoro-3-methoxy-phenyl)pyridine-2-carboxylic acid (compound A) each formulated as an SC (suspension concentrate) and various herbicidal components alone and in combination. Forms of compound A were applied on an acid equivalent basis.
(§3) The herbicidal components were applied on an active ingredient basis and included very long chain fatty acid (VLCFA) synthesis-inhibiting and fatty acid/lipid synthesis-inhibiting herbicides acetochlor (technical grade material), acetochlor+dichlormid formulateded as Topnotch®, pretilachlor (technical grade material), butachlor formulated as Butachlor EC, fentrazamide formulated as Fentrazamide EC, thiobencarb formulated as Bolero® 8EC, cafenstrole formulated as Himeadow® WP or Lapost® Flowable, benfuresate formulated as Full Shot®, anilofos (technical grade material), mefenacet (technical grade material), molinate (technical grade material), and thenylchlor (technical grade material).
(§4) Treatment requirements for each compound or herbicidal component were calculated based upon the rates being tested, the concentration of active ingredient or acid equivalent in the formulation, an application volume of 2 mL per component per pot, and an application area of 86.59 cm^2 per pot.
(§5) For formulated compounds, a measured amount was placed in an individual 100 or 200 mL glass vial and was dissolved in a volume of 1.25% (v/v) Agri-Dex® crop oil concentrate to obtain application solutions.
(§6) For technical grade compounds, a weighed amount was placed in an individual 100 to 200 mL glass vial and was dissolved in a volume of acetone to obtain concentrated stock solutions. […] The concentrated stock solutions obtained were diluted with an equivalent volume of an aqueous mixture containing 2.5% (v/v) crop oil concentrate so that the final application solutions contained 1.25% (v/v) crop oil concentrate.
(§7) Applications were made by injecting with a pipetter appropriate amounts of the application solutions, individually and sequentially, into the aqueous layer of the paddy. Control plants were treated in the same manner with the solvent blank. […]

Another test relates to ECHCG. Described as above. It counts as in vivo, Echinochloa crus-galli (L.) Beauv. (barnyardgrass). As to the method:
as §1, §2, §3, §4, §5, §6, §7

The next test concerns POLHP. The test can be described thus: Example V: field trial, in-water application to transplanted rice, Niigata, Japan. It counts as in vivo, Polygonum hydropiperoides. To be noted: 31 DAA, submerged weeds. The protocol:
Post and pre-emergence field trials were conducted in Niigata, Japan. Trial sites were located in commercially grown fields of transplanted rice (Oryza sativa, variety: Koshihikari) using standard herbicide small plot research methodology. The trial plot size was 2 meters (m)×2 m with 3 replications. The nursery plants were grown in the greenhouse using practical methods and transplanted into the field at the 2.5-leaf stage on May 7, 2012. The row and in-row spaces were 30 cm and 17 cm, respectively. The crop was grown using normal cultural practices for fertilization, water management and maintenance to ensure good growth of the crop and the weeds.
Treatments consisted of the benzyl ester of 4-amino-3-chloro-5-fluoro-6-(4-chloro-2-fluoro-3-methoxyphenyl)pyridine-2-carboxylic acid (Compound A) formulated as an SC (suspension concentrate) and various herbicidal components alone and in combination. Compound A benzyl ester was applied on an active ingredient basis. […]
Compound A benzyl ester SC was once diluted in 100 mL water in the 200 mL bottle/plot to achieve the desired rates and applied by water injection. […] Visual weed control was scored on a scale of 0 to 100 percent where 0 corresponds to no injury and 100 corresponds to complete kill. […]

The next test has as its system SCPJU. The test can be described thus: Example II: in-water applied weed control, transplanted paddy rice, greenhouse. It counts as in vivo, Schoenoplectus juncoides (Roxb.) Palla (Japanese bulrush). As to the method: as §1, with “Water was added on a regular basis to maintain the paddy flood, and supplemental lighting was provided with overhead metal halide 1000-Watt lamps as necessary. The plants were employed for testing when they reached the first through fourth true leaf stage.” left out
as §4
For formulated compounds, a measured amount was placed in an individual 100 or 200 mL glass vial and was dissolved in a volume of 1.25% (v/v) Agri-Dex® crop oil concentrate to obtain application solutions. […]

In the case of `CCS(=O)(=O)Oc1ccc2c(c1)C(C)(C)CO2` [Benfuresate, 2,3-dihydro-3,3-dimethyl-5-benzofuranyl ethanesulfonate], the “Visual Weed Control LEFCH Obs” value is given as 0% in the test on LEFCH (75 gai/ha (Full Slot), 22 DAA) and 0% in the test with LEFCH (150 gai/ha (Full Slot), 22 DAA). In addition, the “Visual Weed Control ECHCG Obs” value is 0% in the test with ECHCG (75 gai/ha (Full Slot), 22 DAA) and 0% in the test on ECHCG (150 gai/ha (Full Slot), 22 DAA). Further, the “Visual Weed Control POLHP Obs” value with POLHP (600 gai/ha) is 94.3%.

Turning to `CCCOCCN(C(=O)CCl)c1c(CC)cccc1CC` [Pretilachlor, 2-chloro-N-(2,6-diethylphenyl)-N-(2-propoxyethyl)acetamide], the figures for the “Visual Weed Control (%) - 20 DAA SCPJU Obs” value in the test on SCPJU (75 gai/ha) and with SCPJU (150 gai/ha) were 50% and 20%, respectively.

On to `COc1c(Cl)ccc(-c2nc(C(=O)O)c(Cl)c(N)c2F)c1F` [Compound A Acid, 4-amino-3-chloro-6-(4-chloro-2-fluoro-3-methoxyphenyl)-5-fluoropyridine-2-carboxylic acid], for which the “Visual Weed Control LEFCH Obs” value in the test on LEFCH (10.6 gae/ha, 22 DAA) is on record as 20%; in the test on LEFCH (21.2 gae/ha, 22 DAA) it was 40%; in the test on LEFCH (35 gae/ha, 21 DAA), 5%; in the test on LEFCH (42.4 gae/ha, 22 DAA), 60%; in the test on LEFCH (70 gae/ha, 21 DAA), 23%. Further, the entries for the “Visual Weed Control (%) - 21 DAA ECHCG Obs” value in the test on ECHCG (8.75 gae/ha), in the test on ECHCG (17.5 gae/ha) and in the test with ECHCG (35 gae/ha) were 0%, 0% and 20%, respectively. For the same molecule, the “Visual Weed Control (%) - 22 DAA ECHCG Obs” value with ECHCG (8.75 gae/ha) came to 0%; in the test with ECHCG (17.5 gae/ha), 15%; in the test on ECHCG (35 gae/ha), 15%. Further, the “Visual Weed Control ECHCG Obs” value with ECHCG (8.75 gae/ha, 21 DAA) was 0%; in the test with ECHCG (17.5 gae/ha, 21 DAA), 0%; in the test with ECHCG (35 gae/ha, 21 DAA) it was 20%; with ECHCG (42.4 gae/ha, 22 DAA), 30%. Also, in the test on SCPJU (8.75 gae/ha), the “Visual Weed Control (%) - 20 DAA SCPJU Obs” value was found to be 40%.

In the case of `CCN(CC)C(=O)n1cnc(S(=O)(=O)c2c(C)cc(C)cc2C)n1` [Cafenstrole, N,N-diethyl-3-[(2,4,6-trimethylphenyl)sulfonyl]-1H-1,2,4-triazole-1-carboxamide], in the test on LEFCH (210 gai/ha (Lapost Flowable), 21 DAA), the “Visual Weed Control LEFCH Obs” value was determined as 38%. Besides, the “Visual Weed Control ECHCG Obs” value in the test with ECHCG (52.5 gai/ha (Himeadow WP), 21 DAA) was 20%; in the test on ECHCG (105 gai/ha (Himeadow WP), 21 DAA) it was 25%.

In the case of `COc1c(Cl)ccc(-c2nc(C(=O)OCc3ccccc3)c(Cl)c(N)c2F)c1F` [Compound A Benzyl Ester, benzyl ester of 4-amino-3-chloro-5-fluoro-6-(4-chloro-2-fluoro-3-methoxy-phenyl)pyridine-2-carboxylic acid], the “Visual Weed Control LEFCH Obs” value in the test on LEFCH (4.38 gae/ha, 22 DAA) stood at 20%; with LEFCH (8 gae/ha, 19 DAA), 0%; in the test with LEFCH (16 gae/ha, 19 DAA), 0%; with LEFCH (32 gae/ha, 19 DAA), 15%; in the test on LEFCH (35 gae/ha, 21 DAA), 50%; with LEFCH (70 gae/ha, 21 DAA), 50%. Besides, the “Visual Weed Control (%) - 21 DAA ECHCG Obs” value in the test with ECHCG (4.38 gae/ha) came out at 15%; with ECHCG (8.75 gae/ha), 20%; in the test with ECHCG (17.5 gae/ha) it was 75%. The “Visual Weed Control (%) - 22 DAA ECHCG Obs” value with ECHCG (4.38 gae/ha) is 10%; with ECHCG (8.75 gae/ha), 25%; with ECHCG (17.5 gae/ha), 60%. Moreover, the “Visual Weed Control ECHCG Obs” value stood at 15% in the test on ECHCG (4.38 gae/ha, 21 DAA); 30% in the test on ECHCG (8 gae/ha, 19 DAA); 20% in the test with ECHCG (8.75 gae/ha, 21 DAA); 20% with ECHCG (16 gae/ha, 19 DAA); 75% in the test with ECHCG (17.5 gae/ha, 21 DAA); 40% with ECHCG (32 gae/ha, 19 DAA). In addition, in the test with POLHP (100 gai/ha), the “Visual Weed Control POLHP Obs” value is reported as 68.3%.
